Literature values, collected in paper PMC4840272 (Neoplasia (New York, N.Y.), 2016).

Details: cited from earlier work

## Cn1c(CCCC(=O)O)nc2cc(N(CCCl)CCCl)ccc21 [bendamustine]
  elimination t1/2: approximately 40 minutes
